In patent US7790717B2, “Spiro-oxazolidinone compounds and their use as metabotropic glutamate receptor potentiators” (AstraZeneca AB, priority 2006, dated 2010):
pEC50: −log10 of the molar value.

molecular target: T1, human mGluR2 (Homo sapiens, UniProt Q14416); test: [35S]-GTPγS binding assay of mGluR2 receptor activation (allosteric activator activity); assay type: biochemical; details: membranes from CHO cells stably expressing human mGluR2; in presence of 1 μM glutamate
T1 construct: expressed in transfected cells; host or cells: CHO cells, stably transfected; membrane preparation
Method: A [^35S]-GTPγS binding assay was used to functionally assay mGluR2 receptor activation. The allosteric activator activity of compounds at the human mGluR2 receptor were measured using a [^35S]-GTPγS binding assay with membranes prepared from CHO cells which stably express the human mGluR2. The assay is based upon the principle that agonists bind to G-protein coupled receptors to stimulate GDP-GTP exchange at the G-protein. Since [^35S]-GTPγS is a non-hydrolyzable GTP analog, it can be used to provide an index of GDP-GTP exchange and, thus, receptor activation. The GTPγS binding assay therefore provides a quantitative measure of receptor activation.
Membranes were prepared from CHO cells stably transfected with human mGluR2. Membranes (30 μg protein) were incubated with test compound (3 nM to 300 μM) for 15 minutes at room temperature prior to the addition of 1 μM glutamate, and incubated for 30 min at 30° C. in 500 μL assay buffer (20 mM HEPES, 100 mM NaCl, 10 mM MgCl2), containing 30 μM GDP and 0.1 nM [^35S]-GTPγS (1250 Ci/mmol). Reactions were carried out in triplicate in 2 mL polypropylene 96-well plates. Reactions were terminated by vacuum filtration using a Packard 96-well harvester and Unifilter-96, GF/B filter microplates. The filter plates were washed 4×1.5 mL with ice-old wash buffer (10 mM sodium phosphate buffer, pH 7.4). The filter plates were dried and 35 μL of scintillation fluid (Microscint 20) was added to each well. The amount of radioactivity bound was determined by counting plates on a Packard TopCount. Data was analyzed using GraphPad Prism, and […] and Emax values (relative to the maximum glutamate effect) were calculated using non-linear regression.

T1 sequence (Q14416 19-872): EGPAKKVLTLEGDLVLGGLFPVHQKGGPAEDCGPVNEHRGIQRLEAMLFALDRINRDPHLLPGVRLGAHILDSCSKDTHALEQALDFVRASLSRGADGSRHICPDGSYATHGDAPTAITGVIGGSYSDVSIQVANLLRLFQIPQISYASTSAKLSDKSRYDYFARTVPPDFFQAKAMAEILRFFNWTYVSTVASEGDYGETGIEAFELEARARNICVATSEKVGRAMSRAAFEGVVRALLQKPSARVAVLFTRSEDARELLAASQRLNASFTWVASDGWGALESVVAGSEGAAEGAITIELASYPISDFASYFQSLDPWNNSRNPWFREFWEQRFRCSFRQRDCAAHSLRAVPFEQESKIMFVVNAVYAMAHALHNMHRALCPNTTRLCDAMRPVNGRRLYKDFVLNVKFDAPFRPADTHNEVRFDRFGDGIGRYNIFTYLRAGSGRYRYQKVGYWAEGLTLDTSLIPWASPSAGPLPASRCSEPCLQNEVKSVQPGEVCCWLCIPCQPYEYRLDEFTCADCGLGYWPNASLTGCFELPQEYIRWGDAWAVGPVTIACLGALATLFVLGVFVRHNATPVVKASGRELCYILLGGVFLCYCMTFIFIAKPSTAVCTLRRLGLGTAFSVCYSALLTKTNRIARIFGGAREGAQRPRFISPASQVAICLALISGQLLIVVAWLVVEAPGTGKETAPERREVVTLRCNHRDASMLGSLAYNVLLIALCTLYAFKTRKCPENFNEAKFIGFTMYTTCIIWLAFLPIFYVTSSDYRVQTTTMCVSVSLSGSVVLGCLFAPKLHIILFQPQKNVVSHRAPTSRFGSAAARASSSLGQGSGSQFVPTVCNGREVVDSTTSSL

pEC50 | SMILES
6.49 | O=C1OC2(CCCCC2)CN1Cc1ccc(-c2ccccc2CN2CCOCC2)cc1 [Example 1.1, 3-(2′-Morpholin-4-ylmethyl-biphenyl-4-ylmethyl)-1-oxa-3-aza-spiro[4.5]decan-2-one]
6.00 | O=C1OC2(CCCCC2)CN1Cc1ccc(-c2ccc(NCCN3CCOCC3)nc2)cc1 [Example 1.30, 3-{4-[6-(2-Morpholin-4-yl-ethylamino)-pyridin-3-yl]-benzyl}-1-oxa-3-aza-spiro[4.5] decan-2-one]
7.02 | O=C1OC2(CCCCC2)CN1Cc1ccc(-c2ccccc2)cc1 [Example 3.2, 3-Biphenyl-4-ylmethyl-1-oxa-3-aza-spiro[4.5]decan-2-one]

More lines, now with the values behind:

SMILES | pEC50
O=C1OC2(CCCCC2)CN1Cc1ccc(-c2ccc(Oc3ccccc3)cc2)cc1 [Example 1.6, 3-(4′-Phenoxy-biphenyl-4-ylmethyl)-1-oxa-3-aza-spiro[4.5]decan-2-one] | 7.85
O=C1OC2(CCC3(CC2)OCCO3)CN1Cc1ccc(-c2ccc(F)cc2)cc1 [Example 1.49, 3-(4′-Fluoro-biphenyl-4-ylmethyl)-1,9,12-trioxa-3-aza-dispiro[4.2.4.2]tetradecan-2-one] | 6.42
